Laboratory results from PMC8844822, “SARM1 is a multi-functional NAD(P)ase with prominent base exchange activity, all regulated bymultiple physiologically relevant NAD metabolites” (iScience, 2022).

How the values were obtained:
DRG neurons = test: Base exchange products in DRG explant cultures (metabolite extraction, HPLC); assay type: cell-based, mouse; conditions: 4 h; for SARM1 dependence of base exchange product formation: wild-type vs Sarm1^−/− DRG cultures
Description: Dorsal Root Ganglia (DRG) were dissected from C57BL/6J (RRID IMSR_JAX:000664) or Sarm1^-/- (RRID MGI_3765957) E13.5-E14.5 mouse embryos. Explants were cultured in 35 mm tissue culture dishes pre-coated with poly-L-lysine (20 μg/ml for 1 h; Merck) and laminin (20 μg/ml for 1 h; Merck) in Dulbecco's Modified Eagle's Medium (DMEM, Gibco) with 1 % penicillin/streptomycin (Thermo Fisher Scientific), 33 ng/ml 2.5S NGF (Thermo Fisher Scientific) and 2% B27 (Gibco). 4 μM aphidicolin (Merck) was used to reduce proliferation and viability of small numbers of non-neuronal cells ([Loreto and Gilley, 2020]).
Wild-type and Sarm1^−/− DRG neurons were treated at DIV7 with 3-acetylpyridine (AcPyr) or vehicle (H2O), or with vacor or vehicle (H2O with 4% 1 N HCl). Proper drug concentrations and times of collection were determined first by dedicated experiments (see Figure 5A). At the indicated time-point, wild-type and Sarm1^−/− DRG whole explant cultures (typically 30-60 ganglia per condition) were collected, washed in ice-cold PBS and rapidly frozen in dry ice, and stored at −80°C until processed. Next extraction was carried out as reported by grinding in liquid N2, resuspending in HClO4 containing cAMP as internal standard for recovery calculations, sonicating, and neutralizing with K2CO3 ([Mori et al., 2014]). Next HPLC analyses to detect and measure the base exchange formed products, i.e. AcPyrAD or the vacorylated compound VAD, were carried out as described above in the paragraph “NADase assays”. In all samples, recovery yields from spiked cAMP were at least 96%. Furthermore, pellets after extraction of soluble nucleotides were treated as reported ([Mori et al., 2014]) to get reference protein contents to normalize the nucleotide levels. Protein concentrations were determined using the Bradford Reagent (Merck).

[1] = target: T1, Aplysia californica ADP ribosyl cyclase (Aplysia californica, UniProt P29241); test: Base exchange reactions at neutral pH (HPLC); assay type: biochemical; parameters: purchased Merck A8950
T1 sequence (P29241 25-282): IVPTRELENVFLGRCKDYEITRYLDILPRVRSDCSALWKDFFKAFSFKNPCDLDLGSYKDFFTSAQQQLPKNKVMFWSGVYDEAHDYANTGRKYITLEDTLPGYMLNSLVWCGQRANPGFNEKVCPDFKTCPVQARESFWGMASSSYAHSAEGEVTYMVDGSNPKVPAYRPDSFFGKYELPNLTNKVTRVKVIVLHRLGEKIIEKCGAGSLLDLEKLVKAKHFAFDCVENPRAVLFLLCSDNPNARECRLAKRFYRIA
Description: Multiple time stops from individual assays as above were analyzed for linearity, then extents of hydrolysis (white bars), cyclization (red bars), or base exchange (black bars) were calculated from each corresponding product as shown in Figure 1B and STAR methods. […] See also Figures S3–S5, and Table S1
Rates were calculated as follows.

[2] = NAD […] alone or + AcPyr 2 mM / Vacor 0.5 mM / Na 2 mM
[3] = NADP […] alone or + AcPyr 2 mM / Vacor 0.5 mM / Na 2 mM

Row | SMILES | AcPyrAD formed (DRG neurons; wild-type DRGs, AcPyr 250 μM) | SARM1 dependence of base exchange product formation (DRG neurons) | rate [1, 2] | rate [1, 3] | VAD formed (DRG neurons; wild-type DRGs, vacor 50 μM)
1 | CC(=O)c1cccnc1 [AcPyr, 3-acetylpyridine] | 0.446 ± 0.021 nmol per mg of protein | not in treated Sarm1^−/− cultures | 13996 ±624 mU/mg | 15779 ±5215 mU/mg | –
2 | O=C(NCc1cccnc1)Nc1ccc([N+](=O)[O-])cc1 [Vacor, 1-(4-nitrophenyl)-3-(pyridin-3-ylmethyl)urea] | – | found only in wild-type DRGs | 12748 ±2593 mU/mg | 8132 ±2201 mU/mg | ~0.14 nmol/mg
